Source: patent publication US6569878B1, “Substituted 4-amino-thiazol-2-yl compounds as cyclin-dependent kinase inhibitors” (Agouron Pharmaceuticals Inc., priority 1997, dated 2003)

Assays:
U2-OS = experiment: Inhibition of cell growth, MTT assay, U2-OS; type: cell-based; details: Homo sapiens, U2OS
Method in brief: (§1)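 Cells rested 4 h after plating, then exposed to graded compound concentrations in 0.5% (v/v) DMSO for four to six days (cell-type dependent) at 37° C, 5% CO2. Viability was read by MTT (0.2 mg/mL final, 4 h at 37° C), with DMSO-solubilized formazan measured at 540 nm.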

Saos-2 = experiment: Inhibition of cell growth, MTT assay, Saos-2; type: cell-based; details: Homo sapiens; Saos-2, MTT assay
Method in brief: as §1

[1] = system: phosphorylation of the retinoblastoma protein (pRb) in HCT-116 cells; experiment: pRb immunoblotting (anti-Rb antibody); type: cell-based, human; details: five micromolar of each compound for 12 hours, western blot
Protocol: (§2) The ability of compounds to inhibit phosphorylation of the retinoblastoma protein (pRb) was assessed by western blot analysis. An anti-Rb antibody was used to measure the conversion of hyper-phosphorylated pRb to hypo-phosphorylated pRb.
(§3) Human colon tumor cells (HCT-116 cells; 5×10^6) were plated on […] dishes and allowed to grow overnight. Five micromolar of each compound was added for 12 hours. The cells were then collected and centrifuged. The cell pellets were lysed by the addition of 100 μL lysis buffer (50 mM HEPES (pH 7.0), 250 mM NaCl, 5 mM ethylenediaminetetraacetic acid, 0.1% Nonidet P-40, 1 mM dithiothreitol, 2 mM sodium pyrophosphate, 1 mM sodium orthovanadate, 1 μg/ml aprotonin, 1 μg/ml leupeptin, 50 μg/ml phenylmethylsulfonyl fluoride). Forty micrograms of protein were separated by sodium dodecyl sulfate-polyacrylamide gel electrophoresis (SDS-PAGE) on a 6% gel. The proteins were transferred to nitrocellulose and blocked with 5% blocking buffer in Tris-buffered saline overnight. The anti-Rb antibody (Pharmingen), the anti-phospho-Rb (Ser 780) antibody (MBL), and secondary antibody were incubated for 1 hour at room temperature followed by three wash steps in 0.01% Tween-20 in Tris-buffered saline. The Rb protein was detected using chemiluminescence according to the manufacturer (Amersham).

[2] = target: T1, human CDK1 (cdc2) and cyclin B (Homo sapiens, UniProt P06493); experiment: Inhibition of CDK1(cdc2)/cyclin B histone H1 kinase activity; type: biochemical; details: read-out: Ki CDK 1/B
T1 construct: purchased New England Biolabs (Beverly Mass.)
T1 sequence (P06493 whole entry): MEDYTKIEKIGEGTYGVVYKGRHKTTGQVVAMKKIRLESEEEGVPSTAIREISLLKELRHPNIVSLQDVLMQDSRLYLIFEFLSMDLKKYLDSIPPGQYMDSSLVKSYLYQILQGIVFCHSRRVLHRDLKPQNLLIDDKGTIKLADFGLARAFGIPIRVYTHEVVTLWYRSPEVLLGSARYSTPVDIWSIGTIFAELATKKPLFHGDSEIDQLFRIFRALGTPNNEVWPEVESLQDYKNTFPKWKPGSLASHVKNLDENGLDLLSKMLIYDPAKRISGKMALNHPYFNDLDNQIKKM
T1 sequence (P14635 whole entry partner): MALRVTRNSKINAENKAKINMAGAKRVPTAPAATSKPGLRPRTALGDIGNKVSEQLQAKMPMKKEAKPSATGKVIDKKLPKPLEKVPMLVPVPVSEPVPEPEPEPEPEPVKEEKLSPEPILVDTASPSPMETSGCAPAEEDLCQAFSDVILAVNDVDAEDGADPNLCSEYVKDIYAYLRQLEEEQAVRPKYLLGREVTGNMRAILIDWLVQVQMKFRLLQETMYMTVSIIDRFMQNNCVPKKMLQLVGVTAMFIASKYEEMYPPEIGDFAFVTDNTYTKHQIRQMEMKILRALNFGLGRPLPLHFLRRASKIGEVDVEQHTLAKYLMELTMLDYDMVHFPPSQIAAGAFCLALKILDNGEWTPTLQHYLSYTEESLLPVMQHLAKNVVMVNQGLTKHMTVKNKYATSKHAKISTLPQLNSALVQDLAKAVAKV
Method in brief: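 CDK1/cyclin B (commercial, or CDK1/GST-cyclin B1 from co-infected insect cells) phosphorylated histone H1 with 25 μM [32/33P]ATP at pH 7.4, 30° C for 20 min, 2% DMSO. Product captured on phosphocellulose and read by phosphorimager; apparent Ki from competitive or tight-binding fits, with Km for ATP determined.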

MCF-7 = experiment: Inhibition of cell growth, MTT assay, MCF-7; type: cell-based; details: MCF-7, MTT assay
Protocol: (§4) The water-insoluble purple formazan product was then detected spectrophotometrically. […] Plates were incubated for four hours before addition of inhibitor compounds. Different concentrations of inhibitor compounds were added in 0.5% (v/v) dimethylsulfoxide (15 μL/well), and cells were incubated at 37° C. (5% CO2) for four to six days (depending on cell type). At the end of the incubation, MTT was added to a final concentration of 0.2 mg/mL, and cells were incubated for 4 hours more at 37° C. After centrifugation of the plates and removal of medium, the absorbance of the formazan (solubilized in dimethylsulfoxide) was measured at 540 nm.

[3] = system: pRb phosphorylation at serine 780 in HCT-116 cells; experiment: pRb immunoblotting (anti-phospho-Rb (ser780) antibody); type: cell-based, human; details: five micromolar of each compound for 12 hours, western blot, anti-phospho-Rb (Ser 780) antibody
Protocol: as §2, §3

CDK2/cyclin A = target: T2, CDK2/cyclin A (Homo sapiens, UniProt P24941); experiment: Inhibition of CDK2/cyclin A retinoblastoma kinase activity; type: biochemical; details: read-out: Ki CDK 2/A
T2 construct: made in house; host or cells: CDK2: insect cells (baculovirus); cyclin A: E. coli, then limited proteolysis
Method in brief: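 Baculovirus-expressed CDK2 with excess proteolyzed cyclin A (or purified complex), 150 nM or 5 nM, phosphorylating an Rb fragment with 25 μM [32/33P]ATP, pH 7.4, 30° C, 20 min. Filter-captured radioactivity by phosphorimager; apparent Ki from fits to competitive or tight-binding competitive inhibition using measured ATP Km.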

HCT116 = experiment: Inhibition of cell growth, MTT assay, HCT116; type: cell-based, human; details: Homo sapiens, HCT-116
Method in brief: as §1

MDA-MB-468 = experiment: Inhibition of cell growth, MTT assay, MDA-MB-468; type: cell-based; details: Homo sapiens; MDA-MB-468, MTT assay
Protocol: as §4

[4] = target: T3, complex of human CDK4 and cyclin D3 (Homo sapiens, UniProt P11802); experiment: Inhibition of CDK4/cyclin D retinoblastoma kinase activity (D-type cyclin is D3); type: biochemical; details: superscript a: D-type cyclin is D3; apparent Ki; read-out: Ki CDK 4/D
T3 construct: made in house; host or cells: insect cells, co-infected with baculovirus
T3 sequence (P11802 whole entry): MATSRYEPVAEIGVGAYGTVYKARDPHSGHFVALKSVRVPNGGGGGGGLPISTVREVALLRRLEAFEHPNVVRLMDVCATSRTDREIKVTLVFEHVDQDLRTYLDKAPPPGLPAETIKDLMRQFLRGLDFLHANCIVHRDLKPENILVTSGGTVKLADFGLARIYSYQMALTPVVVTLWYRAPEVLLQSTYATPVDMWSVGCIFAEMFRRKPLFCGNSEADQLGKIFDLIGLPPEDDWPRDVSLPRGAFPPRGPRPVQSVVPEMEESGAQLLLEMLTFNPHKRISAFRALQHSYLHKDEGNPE
T3 sequence (P30281 whole entry partner): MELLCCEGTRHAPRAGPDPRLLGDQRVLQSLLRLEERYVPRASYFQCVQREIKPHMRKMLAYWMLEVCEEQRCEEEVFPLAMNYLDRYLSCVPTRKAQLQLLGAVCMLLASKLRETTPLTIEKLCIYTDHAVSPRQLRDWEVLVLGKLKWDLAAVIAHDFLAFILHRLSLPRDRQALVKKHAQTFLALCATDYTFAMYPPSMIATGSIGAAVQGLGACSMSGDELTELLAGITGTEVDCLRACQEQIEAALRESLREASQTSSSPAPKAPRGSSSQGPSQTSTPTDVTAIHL
Method in brief: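 Radiometric assay: [32P]- or [33P]ATP phosphate incorporation into Rb substrate at 30°C for 20 min, stopped with EDTA, filter-captured and phosphorimaged.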

RXF-393 = experiment: Inhibition of cell growth, MTT assay, RXF-393; type: cell-based; details: Homo sapiens; RXF-393, MTT assay
Protocol: as §4

COLO-205 = experiment: Inhibition of cell growth, MTT assay, COLO-205; type: cell-based; details: Homo sapiens; COLO-205, MTT assay
Protocol: as §4

M14 melanoma = experiment: Inhibition of cell growth, MTT assay, M14 melanoma; type: cell-based; details: Homo sapiens
Protocol: as §4

[5] = target: T4, complex of human CDK4 and genetically truncated (1-264) cyclin D3 (Homo sapiens, UniProt P11802); experiment: Inhibition of CDK4/cyclin D retinoblastoma kinase activity (D-type cyclin is truncated D3); type: biochemical; details: superscript c: D-type cyclin is truncated D3; read-out: Ki CDK 4/D
T4 construct: made in house; host or cells: insect cells, co-infected with baculovirus
T4 sequence (P11802 whole entry, the tested form may be a part): as the sequence (P11802 whole entry) above
T4 sequence (P30281 1-264 partner limits assumed): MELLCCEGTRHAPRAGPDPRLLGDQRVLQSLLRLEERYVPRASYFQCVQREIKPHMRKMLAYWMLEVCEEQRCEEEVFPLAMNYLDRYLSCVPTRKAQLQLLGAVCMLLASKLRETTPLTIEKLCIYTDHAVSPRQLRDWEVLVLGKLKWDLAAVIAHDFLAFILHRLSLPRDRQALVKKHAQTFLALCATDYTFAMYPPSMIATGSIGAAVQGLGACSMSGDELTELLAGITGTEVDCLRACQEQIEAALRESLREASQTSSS
Protocol: Cyclin-dependent kinase activity was measured by quantifying the enzyme-catalyzed, time-dependent incorporation of radioactive phosphate from [^32P]ATP or [^33P]ATP into a protein substrate. Unless noted otherwise, assays were performed in 96-well plates in a total volume of 50 μL, in the presence of 10 mM HEPES (N-[2-hydroxyethyl]piperazine-N′-[2-ethanesulfonic acid]) (pH 7.4), 10 mM MgCl2, 25 μM adenosine triphosphate (ATP), 1 mg/mL ovalbumin, 5 μg/mL leupeptin, 1 mM dithiothreitol, 10 mM β-glycerophosphate, 0.1 mM sodium vanadate, 1 mM sodium fluoride, 2.5 mM ethylene glycol-bis(β-aminoethyl ether)-N,N,N′N′-tetraacetic acid (EGTA), 2% (v/v) dimethylsulfoxide, and 0.03-0.4 μCi [^32/33P]ATP per reaction. Reactions were initiated with enzyme, incubated at 30° C., and terminated after 20 minutes by the addition of ethylenediaminetetraacetic acid (EDTA) to 250 mM. The phosphorylated substrate was then captured on a nitrocellulose or phosphocellulose membrane using a 96-well filtration manifold, and unincorporated radioactivity was removed by repeated washing with 0.85% phosphoric acid. Radioactivity was quantified by exposing the dried membranes to a phosphorimager.
Apparent Ki values were measured by assaying enzyme activity in the presence of different inhibitor compound concentrations and subtracting the background radioactivity measured in the absence of enzyme. The kinetic parameters (kcat, Km for ATP) were measured for each enzyme under the usual assay conditions by determining the dependence of initial rates on ATP concentration. Inhibition data were fit to an equation for competitive inhibition using Kaleidagraph (Synergy Software), or were fit to an equation for competitive tight-binding inhibition using the software KineTic (BioKin, Ltd.).
A complex of human CDK4 and cyclin D3, or a complex of cyclin D1 and a fusion protein of human CDK4 and gluathione-S-transferase (GST-CDK4), or a complex of human CDK4 and genetically truncated (1-264) cyclin D3, was purified using traditional biochemical chromatographic techniques from insect cells that had been co-infected with the corresponding baculovirus expression vectors (see e.g., Meijer and Kim, “Chemical Inhibitors of Cyclin-Dependent Kinases,” Methods in Enzymol,. vol. 283 (1997), pp. 113-128.). The enzyme complex (5 or 50 nM) was assayed with 0.3-0.5 μg of purified recombinant retinoblastoma protein fragment (Rb) as a substrate. The engineered Rb fragment (residues 386-928 of the native retinoblastoma protein; 62.3 kDa) contains the majority of the phosphorylation sites found in the native 106-kDa protein, as well as a tag of six histidine residues for ease of purification. Phosphorylated Rb substrate was captured by microfiltration on a nitrocellulose membrane and quantified using a phosphorimager as described above. For measurement of tight-binding inhibitors, the enzyme complex concentration was lowered to 5 nM, and the assay duration was extended to 60 minutes, during which the time-dependence of product formation was linear.

| IC50 (U2-OS) [nM] | IC90 (U2-OS) [nM] | Ki [2] [nM] | Ki (CDK2/cyclin A) [nM] | IC50 (HCT116) [nM] | IC90 (HCT116) [nM] | Ki [4] [nM] | Compound | IC50 (Saos-2) [nM] | IC90 (Saos-2) [nM] | Inhibits pRb phosphorylation [1] | Inhibits pRb (ser 780) phosphorylation [3] | other results |
| --- | --- | --- | --- | --- | --- | --- | --- | --- | --- | --- | --- | --- |
| 1800 | 4000 | 826 | 607 | 950 | 2900 | 9 | Cc1ccsc1C(=O)c1sc(Nc2ccc(N3CCN(C)CC3)cc2)nc1N [C(87), {4-Amino-2-[4-(4-methyl-piperazin-1-yl)-phenylamino]-thiazol-5-yl}-3-methyl-thiophen-2-yl-methanone] | 2000 | 4000 | + | + | IC50 (RXF-393): 1500 nM; IC90 (RXF-393): 2300 nM; IC50 (COLO-205): 390 nM; IC90 (COLO-205): 1700 nM; IC50 (M14 melanoma): 1500 nM; IC90 (M14 melanoma): 4200 nM |
| 3400 | 6000 | 1410 | 1040 | 1300 | 3100 | 41 | Cc1cc([N+](=O)[O-])sc1C(=O)c1sc(Nc2ccc(N3CCN(C)CC3)cc2)nc1N [C(94), {4-Amino-2-[4-(4-methyl-piperazin-1-yl)-phenylamino]-thiazol-5-yl}-(3-methyl-5-nitro-thiophen-2-yl)-methanone] | 2200 | 5000 | + | + |  |

The next lines start with the compound.

| Compound | IC50 (U2-OS) [nM] | IC90 (U2-OS) [nM] | Ki [2] [nM] | Ki (CDK2/cyclin A) [nM] | IC50 (HCT116) [nM] | IC90 (HCT116) [nM] | Ki [4] [nM] | IC50 (Saos-2) [nM] | IC90 (Saos-2) [nM] | Inhibits pRb phosphorylation [1] | Inhibits pRb (ser 780) phosphorylation [3] | other results |
| --- | --- | --- | --- | --- | --- | --- | --- | --- | --- | --- | --- | --- |
| Cc1cc(C(=O)c2sc(Nc3ccc(S(N)(=O)=O)cc3)nc2N)c(C)s1 [C(50), 4-[4-Amino-5-(2,5-dimethyl-thiophene-3-carbonyl)-thiazol-2-ylamino]-benzenesulfonamide] | 2000 | 3000 | 29 | 5.6 | 610 | 1600 | 25.5 | 1300 | 2800 | + | + | IC50 (MCF-7; Homo sapiens, MCF7): 3000 nM; IC90 (MCF-7; Homo sapiens, MCF7): > 25000 nM; % inhibition of growth in parentheses after >25 (MCF-7; concentration not given): (88%); IC50 (MDA-MB-468): 480 nM; IC90 (MDA-MB-468): 1500 nM |
| Nc1nc(Nc2ccc(S(N)(=O)=O)cc2)sc1C(=O)c1sc(Br)cc1Br [C(73), 4-[4-Amino-5-(3,5-dibromo-thiophene-2-carbonyl)-thiazol-2-ylamino]-benzenesulfonamide] | 4100 | 9500 | 20 | 6.8 | 1400 | 3400 | 6.3 | 1300 | 5000 | + | + |  |
| COc1ccc(Nc2nc(N)c(C(=O)c3ccccc3C#N)s2)cc1 [F, 2-[4-Amino-2-(4-methoxy-phenylamino)-thiazole-5-carbonyl]-benzonitrile] | 1000 | 20000 | 200 | 350 | 1000 | 2600 | 40.7 | 1000 | 1600 | − | − |  |
| Nc1nc(Nc2ccc(N3CCNCC3)cc2)sc1C(=O)c1c(F)cc(F)cc1F [J(3), [4-Amino-2-(4-piperazin-1-yl-phenylamino)-thiazol-5-yl]-(2,4,6-trifluoro-phenyl)-methanone] | 2900 | 5200 | 2000 | 572 | 900 | 2800 | 15 | 2200 | 4900 |  |  | Ki [5]: 19 nM |
